Reference: ChEMBL document CHEMBL3272017, “Adrenergic sulfonanilides. 4. Centrally active beta-adrenergic agonists” (J Med Chem, 1976)
Calls of active or inactive are those of the source. The rule behind the calls is not given here.

Legend:
Mus musculus [1] = experiment: Analgesic activity in sc dosed mouse assessed as reduction in phenylalanine-induced writhing; format: functional
Rattus norvegicus [2] = experiment: Antagonism of morphine-induced analgesia in rat at 20 mg/kg, sc; format: functional
Cavia porcellus [3] = organism: Cavia porcellus; experiment: Blockade of beta-adrenoceptor in guinea pig tracheal spiral relative to sotalol; format: tissue-based; details: Trachea
Rattus norvegicus [4] = organism: Rattus norvegicus; details: Tail
Rattus norvegicus [5] = experiment: Analgesic activity in sc dosed rat by tail flick test; format: functional
Cavia porcellus [6] = organism: Cavia porcellus; experiment: Agonist activity at beta-adrenoceptor in guinea pig tracheal spiral assessed as potency for 75% relaxation of spontaneous contraction relative to soterenol; format: tissue-based; details: Trachea
Mus musculus [7] = experiment: Inhibition of reserpine-induced ptosis in po dosed mouse; format: functional
Mus musculus [8] = experiment: Reversal of reserpine-induced ptosis in po dosed mouse; format: functional
Rattus norvegicus [9] = experiment: Antagonism of morphine-induced analgesia in sc dosed rat
Rattus norvegicus [10] = organism: Rattus norvegicus; experiment: Anorexiant activity in rat by free feeding method relative to d-amphetamine; format: functional
Canis familiaris = organism: Canis familiaris; experiment: Anorexiant activity in dog by free feeding method relative to d-amphetamine; format: functional, Canis lupus familiaris
Rattus norvegicus [11] = experiment: Induction of cAMP level in Sprague-Dawley rat hypothalamus at 0.3 mg/kg, sc after 30 mins; format: functional, organism-based; design: dose 0.3 mg/kg
Rattus norvegicus [12] = experiment: Effect on cAMP level in Sprague-Dawley rat heart at 0.3 mg/kg, sc after 30 mins; format: functional, organism-based; design: dose 0.3 mg/kg
Rattus norvegicus [13] = experiment: Effect on cAMP level in Sprague-Dawley rat liver at 0.3 mg/kg, sc after 30 mins; format: functional, organism-based; design: dose 0.3 mg/kg
Rattus norvegicus [14] = experiment: Effect on cAMP level in Sprague-Dawley rat striatum at 0.3 mg/kg, sc after 30 mins; format: functional, organism-based; design: dose 0.3 mg/kg
Rattus norvegicus [15] = experiment: Effect on cAMP level in Sprague-Dawley rat cortex at 0.3 mg/kg, sc after 30 mins; format: functional, organism-based; design: dose 0.3 mg/kg
Rattus norvegicus [16] = experiment: Induction of cAMP level in Sprague-Dawley rat hypothalamus at 0.3 mg/kg, sc cotreated with 15 mg/kg, sc morphine 30 mins before sacrifice; format: functional, organism-based
[17] = Activity at alpha-adrenoceptor in rat seminal vesicle assessed as potency for producing 50% of that of l-epinephrine-induced contraction relative to soterenol; format: tissue-based
Rattus norvegicus [18] = experiment: Antagonism of morphine-induced analgesia in rat at 1.2 mg/kg, sc; format: functional, organism-based; design: dose 1.2 mg/kg
[19] = Mus musculus, sc, read-out: ED50
[20] = Mus musculus, po, read-out: ED50

| SMILES | ED50 (Mus musculus [1]; [19]) | fold change (FC) (Cavia porcellus [6]) | ED50 (Mus musculus [7]; [20]) | ED50 (Mus musculus [8]; [20]) | other results |
| --- | --- | --- | --- | --- | --- |
| CS(=O)(=O)Nc1cc(C(=O)CNC2CC2)ccc1O.Cl | > 6 mg/kg | – | – | – | Activity (Rattus norvegicus [2]): inactive |
| C[C@H](NC1CC1)[C@H](O)c1cccc(NS(C)(=O)=O)c1.Cl (relative stereo) | > 6 mg/kg | – | – | – | fold change (FC) (Cavia porcellus [3]): 0.1 |
| CC(C)NCC(O)c1ccc(O)c(NS(C)(=O)=O)c1 (stereo not given) | – | – | – | – | Activity (Rattus norvegicus [2]): inactive; ED50 (Rattus norvegicus [4]): inactive |
| CS(=O)(=O)Nc1cc(CCNC2CC2)ccc1O.Cl | 0.62 mg/kg | 0.002 | 3.6 mg/kg | 1.5 mg/kg | ED50 (Rattus norvegicus [5]): 2.77 mg/kg; ED50 (Rattus norvegicus [9]): 0.21 mg/kg; fold change (FC) (Rattus norvegicus [10]): 5.5; fold change (FC) (Canis familiaris): 5.5 |
| CCC(Cc1ccc(O)c(NS(C)(=O)=O)c1)NC1CC1.Cl (stereo not given) | > 6 mg/kg | 0.0013 | – | – | – |
| CS(=O)(=O)Nc1cc(C(O)CNC2CCC2)ccc1O.Cl (stereo not given) | > 6 mg/kg | 0.36 | 20 mg/kg | 24 mg/kg | – |
| CS(=O)(=O)Nc1cccc(C(O)CNC2CC2)c1.Cl (stereo not given) | > 6 mg/kg | < 0.01 | 1 mg/kg | 0.8 mg/kg | fold change (FC) (Cavia porcellus [3]): 0.05 |
| CN1CC[C@]23c4c5ccc(O)c4O[C@H]2[C@@H](O)C=C[C@H]3[C@H]1C5.CN1CC[C@]23c4c5ccc(O)c4O[C@H]2[C@@H](O)C=C[C@H]3[C@H]1C5.O=S(=O)(O)O | 0.62 mg/kg | – | – | – | ED50 (Rattus norvegicus [5]): 1.9 mg/kg |
| C=CCN1CC[C@]23c4c5ccc(O)c4O[C@H]2[C@@H](O)C=C[C@H]3[C@H]1C5.Cl [NALORPHINE HYDROCHLORIDE] | 2.5 mg/kg | – | – | – | ED50 (Rattus norvegicus [9]): 0.37 mg/kg; ED50 (Rattus norvegicus [4]): inactive |
| CS(=O)(=O)Nc1cc(C(O)CNC2CC2)ccc1O (single isomer, unassigned; (-)) | – | 1.9 | – | – | – |
| CN(C)S(=O)(=O)Nc1cc(C(O)CNC2CC2)ccc1O.Cl (stereo not given) | 1.7 mg/kg | 0.028 | 0.94 mg/kg | 1.3 mg/kg | ED50 (Rattus norvegicus [5]): 50 mg/kg; ED50 (Rattus norvegicus [9]): 0.72 mg/kg |
| CC(C)(Cc1ccccc1)NCCc1ccc(O)c(NS(C)(=O)=O)c1 | – | 0.31 | – | – | Activity (Rattus norvegicus [2]): inactive |
| CS(=O)(=O)Nc1cc(C(O)CNC2CC2)ccc1O (stereo in doubt; 44) | – | 0.7 | – | – | Activity (Rattus norvegicus [11]): Active; Activity (Rattus norvegicus [12]): inactive; Activity (Rattus norvegicus [13]): inactive; Activity (Rattus norvegicus [14]): inactive; Activity (Rattus norvegicus [15]): inactive; Activity (Rattus norvegicus [16]): Active |
| CS(=O)(=O)Nc1cc(C(O)CNC2CC2)ccc1O.Cl (single isomer, unassigned; (-)) | – | – | – | – | ED50 (Mus musculus [1]): 0.66 mg/kg; fold change (FC) [17]: 108; ED50 (Mus musculus [7]): 0.175 mg/kg; ED50 (Mus musculus [8]): 0.23 mg/kg |
| CS(=O)(=O)Nc1cc(C(O)CNC2CC2)ccc1O (stereo in doubt; 46) | – | 0.0035 | – | – | Activity (Rattus norvegicus [18]): inactive |
| CC(N)Cc1ccccc1.O=S(=O)(O)O (racemic) [AMPHETAMINE SULFATE] | – | – | 0.67 mg/kg | 1.94 mg/kg | – |
| CCOC(CNC1CC1)c1ccc(O)c(NS(C)(=O)=O)c1.Cl (stereo not given) | > 6 mg/kg | – | 35 mg/kg | 9.6 mg/kg | Activity (Rattus norvegicus [2]): inactive |
| Oc1ccc(C(O)CNC2CC2)cc1Cl (stereo not given) | > 6 mg/kg | – | – | – | Activity (Rattus norvegicus [2]; route subcutaneous): 14.5% |
